Source: ChEMBL document CHEMBL4813981, “Synthesis and in vitro antibacterial activity of new aminothiazole-oximepiperidone cephalosporins” (2021)
≈ marks a conversion by molar mass, not a printed value.

How the values were obtained:
Type in all cases: functional
[1] = tested on: Acinetobacter baumannii; experiment: Antibacterial activity against Multidrug resistant Acinetobacter baumannii AR 15-2 assessed as reduction in bacterial growth in the presence of Avibactam
[2] = tested on: Acinetobacter baumannii; experiment: Antibacterial activity against Acinetobacter baumannii NCTC 13304 assessed as reduction in bacterial growth in the presence of Avibactam
[3] = tested on: Escherichia coli; experiment: Antibacterial activity against Escherichia coli 15-4 overexpressing extended spectrum beta-lactamases assessed as reduction in bacterial growth in the presence of Avibactam
[4] = tested on: Klebsiella pneumoniae; experiment: Antibacterial activity against Klebsiella pneumoniae ATCC 700603 assessed as reduction in bacterial growth in the presence of Avibactam
[5] = tested on: Escherichia coli; experiment: Antibacterial activity against Escherichia coli ATCC 35218 assessed as reduction in bacterial growth
[6] = tested on: Enterococcus faecalis; experiment: Antibacterial activity against Enterococcus faecalis ATCC 51299 assessed as reduction in bacterial growth
[7] = tested on: Pseudomonas aeruginosa; experiment: Antibacterial activity against Pseudomonas aeruginosa ATCC 27853 assessed as reduction in bacterial growth in the presence of Avibactam
[8] = tested on: Klebsiella pneumoniae; experiment: Antibacterial activity against Multidrug resistant Klebsiella pneumoniae KR 15-2 assessed as reduction in bacterial growth in the presence of Avibactam
[9] = tested on: Escherichia coli; experiment: Antibacterial activity against Escherichia coli ATCC 25922 assessed as reduction in bacterial growth in the presence of Avibactam
[10] = tested on: Escherichia coli; experiment: Antibacterial activity against Escherichia coli 15-4 overexpressing extended spectrum beta-lactamases assessed as reduction in bacterial growth
[11] = tested on: Escherichia coli; experiment: Antibacterial activity against Escherichia coli 15-3 overexpressing extended spectrum beta-lactamases assessed as reduction in bacterial growth in the presence of Avibactam
[12] = tested on: Escherichia coli; experiment: Antibacterial activity against Escherichia coli ATCC 25922 assessed as reduction in bacterial growth
[13] = tested on: Escherichia coli; experiment: Antibacterial activity against Escherichia coli NCTC 13353 assessed as reduction in bacterial growth
[14] = tested on: Escherichia coli; experiment: Antibacterial activity against Escherichia coli ATCC 35218 assessed as reduction in bacterial growth in the presence of Avibactam
[15] = tested on: Klebsiella pneumoniae; experiment: Antibacterial activity against Multidrug resistant Klebsiella pneumoniae KR 15-1 assessed as reduction in bacterial growth
[16] = tested on: Escherichia coli; experiment: Antibacterial activity against Escherichia coli 15-5 overexpressing extended spectrum beta-lactamases assessed as reduction in bacterial growth
[17] = tested on: Acinetobacter baumannii; experiment: Antibacterial activity against Multidrug resistant Acinetobacter baumannii AR 15-4 assessed as reduction in bacterial growth
[18] = tested on: Klebsiella pneumoniae; experiment: Antibacterial activity against Multidrug resistant Klebsiella pneumoniae KR 15-3 assessed as reduction in bacterial growth in the presence of Avibactam
[19] = tested on: Klebsiella pneumoniae; experiment: Antibacterial activity against Klebsiella pneumoniae ATCC BAA-1705 assessed as reduction in bacterial growth in the presence of Avibactam
[20] = tested on: Escherichia coli; experiment: Antibacterial activity against Escherichia coli NCTC 13353 assessed as reduction in bacterial growth in the presence of Avibactam
[21] = tested on: Klebsiella pneumoniae; experiment: Antibacterial activity against Klebsiella pneumoniae ATCC 700603 assessed as reduction in bacterial growth
[22] = tested on: Enterococcus faecalis; experiment: Antibacterial activity against Enterococcus faecalis ATCC 51299 assessed as reduction in bacterial growth in the presence of Avibactam
[23] = tested on: Acinetobacter baumannii; experiment: Antibacterial activity against Multidrug resistant Acinetobacter baumannii AR 15-3 assessed as reduction in bacterial growth
[24] = tested on: Klebsiella pneumoniae; experiment: Antibacterial activity against Klebsiella pneumoniae ATCC BAA-1705 assessed as reduction in bacterial growth
[25] = tested on: Acinetobacter baumannii; experiment: Antibacterial activity against Acinetobacter baumannii NCTC 13304 assessed as reduction in bacterial growth
[26] = tested on: Klebsiella pneumoniae; experiment: Antibacterial activity against Multidrug resistant Klebsiella pneumoniae KR 15-1 assessed as reduction in bacterial growth in the presence of Avibactam
[27] = tested on: Acinetobacter baumannii; experiment: Antibacterial activity against Multidrug resistant Acinetobacter baumannii AR 15-4 assessed as reduction in bacterial growth in the presence of Avibactam
[28] = tested on: Pseudomonas aeruginosa; experiment: Antibacterial activity against Pseudomonas aeruginosa ATCC 27853 assessed as reduction in bacterial growth
[29] = tested on: Acinetobacter baumannii; experiment: Antibacterial activity against Multidrug resistant Acinetobacter baumannii AR 15-3 assessed as reduction in bacterial growth in the presence of Avibactam
[30] = tested on: Klebsiella pneumoniae; experiment: Antibacterial activity against Multidrug resistant Klebsiella pneumoniae KR 15-3 assessed as reduction in bacterial growth
[31] = tested on: Escherichia coli; experiment: Antibacterial activity against Escherichia coli 15-3 overexpressing extended spectrum beta-lactamases assessed as reduction in bacterial growth
[32] = tested on: Acinetobacter baumannii; experiment: Antibacterial activity against Multidrug resistant Acinetobacter baumannii AR 15-2 assessed as reduction in bacterial growth
[33] = tested on: Escherichia coli; experiment: Antibacterial activity against Escherichia coli 15-5 overexpressing extended spectrum beta-lactamases assessed as reduction in bacterial growth in the presence of Avibactam
[34] = tested on: Klebsiella pneumoniae; experiment: Antibacterial activity against Multidrug resistant Klebsiella pneumoniae KR 15-2 assessed as reduction in bacterial growth

Row | Structure (SMILES) | MIC [5] [µg/mL] | MIC [6] [µg/mL] | MIC [10] [µg/mL] | MIC [12] [µg/mL] | MIC [13] [µg/mL] | MIC [15] [µg/mL] | MIC [16] [µg/mL] | MIC [17] [µg/mL] | MIC [21] [µg/mL] | MIC [23] [µg/mL] | MIC [24] [µg/mL] | MIC [25] [µg/mL] | MIC [28] [µg/mL] | MIC [30] [µg/mL] | MIC [31] [µg/mL] | MIC [32] [µg/mL] | MIC [34] [µg/mL] | further results
1 | Nc1nc(/C(=N/OCc2cc(=O)c(O)cn2O)C(=O)N[C@@H]2C(=O)N3C(C(=O)O)=C(Cl)CS[C@H]23)cs1 | 0.5 (≈ 0.921 µM) | > 64 | > 64 | 2 (≈ 3.68 µM) | > 64 | > 64 | > 64 | > 64 | > 64 | > 64 | > 64 | > 64 | 4 (≈ 7.37 µM) | > 64 | > 64 | > 64 | > 64 | MIC [1]: 16 µg/mL; MIC [2]: 32 µg/mL; MIC [3]: 1 µg/mL; MIC [4]: > 64 µg/mL; MIC [7]: 1 µg/mL; MIC [8]: 1 µg/mL; MIC [9]: 0.125 µg/mL; MIC [11]: 1 µg/mL; MIC [14]: 0.125 µg/mL; MIC [18]: 1 µg/mL; MIC [19]: 8 µg/mL; MIC [20]: 1 µg/mL; MIC [22]: > 64 µg/mL; MIC [26]: 2 µg/mL; MIC [27]: 8 µg/mL; MIC [29]: 8 µg/mL; MIC [33]: 0.5 µg/mL
2 | COCC1=C(C(=O)O)N2C(=O)[C@@H](NC(=O)/C(=N\OCc3cc(=O)c(O)cn3O)c3csc(N)n3)[C@H]2SC1 | 0.25 (≈ 0.452 µM) | > 64 | > 64 | 2 (≈ 3.62 µM) | > 64 | > 64 | > 64 | > 64 | 64 (≈ 116 µM) | > 64 | > 64 | > 64 | 2 (≈ 3.62 µM) | > 64 | > 64 | > 64 | > 64 | –
3 | C/C=C/C1=C(C(=O)O)N2C(=O)[C@@H](NC(=O)/C(=N\OCc3cc(=O)c(O)cn3O)c3csc(N)n3)[C@H]2SC1 | 1 (≈ 1.82 µM) | > 64 | > 64 | 1 (≈ 1.82 µM) | > 64 | > 64 | > 64 | > 64 | 64 (≈ 117 µM) | > 64 | 64 (≈ 117 µM) | > 64 | 16 (≈ 29.2 µM) | > 64 | > 64 | > 64 | > 64 | –
